Laboratory results reported in patent publication US9532988B2, “Pharmaceutical composition comprising a TRPA1 antagonist and an analgesic agent” (GLENMARK PHARMACEUTICALS S.A., priority 2013, dated 2017).
Counter-ions that a name gives are not always drawn.

Tests used:
[1] = tested on: Monosodium Iodo Acetate (MIA)-osteoarthritis induced weight bearing deficit in male SD rats; assay: MIA-osteoarthritis induced weight bearing deficit (incapacitance meter); format: in vivo, rat (Sprague-Dawley); conditions: 0.5-4 h post-dose, Example 3, Table 5, FIG. 5
Method: After recording basal weight borne by both hind limbs (naïve) using the incapacitance meter (IITC Inc), rats were briefly anaesthetized with 2% isoflurane and O2 mixture and given intraarticular (i.a.) injection of MIA (5 mg per rat in […]) through the intrapatellar ligament of the left knee (Combe et al., 2004). MIA was dissolved in 0.9% sterile saline and administered using a 26½ gauge needle. Contralateral knees were injected intra-articularly with 50 μl of 0.9% sterile saline. Weight bearing deficit in ipsilateral paw was assessed 20 h post MIA injection by measuring weight borne by both hind limbs.
On the day of the experiment (20 h after MIA injection), rats were evaluated for pre-dose weight bearing deficit to assess the effect of MIA. After regrouping the rats after randomization, the pre- & post-dose weight bearing deficit, was assessed for both hind limbs. Rats were orally dosed with vehicle, naproxen, compound I potassium salt and combination (Naproxen+Compound I—simultaneously). The effect of compound I, naproxen and their combination, in MIA-osteoarthritis induced weight bearing deficit in male SD rats, was evaluated using Incapacitance meter (IITC Inc.) fitted with a perspex chamber designed so that each hind paw rat rests on separate transducer pads to record animal's weight on each paw. […] The % reversal of weight bearing deficit was calculated as per standard procedure. […]

[2] = tested on: Streptozotocin (STZ)-induced diabetic peripheral neuropathic hyperalgesia in male SD rats; assay: Streptozotocin-induced diabetic peripheral neuropathic hyperalgesia; format: in vivo, rat (Sprague-Dawley)
Method: (§1) Streptozotocin (STZ)-induced neuropathic hyperalgesia in rats is a model to screen potential therapeutics for diabetic painful neuropathy in human patients. Streptozotocin was dissolved in freshly prepared cold citrate buffer (0.1 M, pH—4.4). Diabetes was induced in overnight fasted male SD rats (weighing 250-300 g) by a single intraperitoneal injection of Streptozotocin (Sigma, 55 mg/kg, i.p). […] On the day of the experiment (13th day after STZ injection) rats were assessed for mechanical hyperalgesia using Randall-Sellito paw pressure analgesymeter. Animals were weighed and grouped as described in Table 9.
Rats were orally dosed with vehicle, duloxetine hydrochloride, Compound I potassium salt and combination (Duloxetine+Compound I).
as §1, with “pH —4.4).” for “pH—4.4).”, “Sprague Dawley” for “SD”, “rats” for “rats (weighing 250-300 g)”, “analgesymeter.” for “analgesymeter. Animals were weighed and grouped as described in Table 9.”
Rats were orally dosed with vehicle, different doses of duloxetine hydrochloride, Compound II disodium salt and combinations (duloxetine+Compound II—simultaneously). The post-dose paw withdrawal thresholds were measured at 1, 2 & 4 h after oral administration. […] Animals were weighed and grouped as described in Table 16.
Rats were orally dosed with vehicle, different doses of duloxetine hydrochloride, Compound III disodium salt and combinations (duloxetine+Compound III—simultaneously). […] Animals were weighed and grouped as described in Table 21.

[3] = tested on: CCI-induced neuropathic hyperalgesia in male SD rats; assay: Chronic constriction injury (CCI)-induced mechanical hyperalgesia; format: in vivo, rat (Sprague-Dawley); conditions: 0.5-4 h post-dose, Example 8, Table 11, FIG. 12
Method: The objective of this experiment was to study the combinational effect of Compound I and pregabalin in CCI-induced neuropathic hyperalgesia in male SD rats. Male SD rats weighing 180-220 g were grouped according to Table 11. Rats were anesthetized using ketamine/xylazine (40/5 mg/kg, i.p.) and the left sciatic nerve was exposed at mid-thigh level through a small incision. Four loose ligatures of 4-0 chromic cat gut at 1 mm space were placed around the sciatic nerve after the bifurcation of common sciatic nerve. After 6-7 days, mechanical hyperalgesia was assessed by measuring hind paw withdrawal thresholds to an increasing pressure (g) stimulus, using the Randall-Sellitto analgesymeter (Ugo Basile, Italy), fitted with a wedge-shaped probe.
Rats were orally dosed with vehicle, pregabalin, Compound I potassium salt and combination (Pregabalin+Compound I).

[4] = tested on: Freund's Complete Adjuvant (FCA)-induced inflammatory mechanical hyperalgesia in male SD rats; assay: FCA-induced inflammatory mechanical hyperalgesia (Randall-Sellitto paw pressure);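 further: left hind paw withdrawal threshold (g) to rising pressure on an analgesymeter, FCA injected intraplantar 24 h earlier, thresholds taken before and 0.5, 1, 2 and 4 h after oral dosing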
Method: Materials: FCA containing 1 mg/ml of heat killed and dried Mycobacterium tuberculosis (H37RA strain) emulsified in mineral oil and mannide mono-oleate; Male SD rats weighing 170-220 g; Paw Pressure Analgesymeter (37215, Ugo Basile, Comerio, Italy); Compound I potassium; and Diclofenac sodium
Naïve withdrawal thresholds of the left hind paw to an increasing pressure (g) stimulus were measured in rats using the analgesymeter. FCA was injected (30 μl) into the plantar region of left paw of rats to induce the inflammatory hyperalgesia. Mechanical hyperalgesia (24 h after FCA injection) was assessed by measuring hind paw withdrawal thresholds.
The post-dose paw withdrawal thresholds were measured at 0.5, 1, 2 & 4 h after oral administration. The percentage (%) reversal of mechanical hyperalgesia was calculated as per standard procedure.
Naïve withdrawal thresholds of the left hind paw to an increasing pressure (g) stimulus were measured in rats using the analgesymeter. Freund's Complete Adjuvant (FCA) was injected (30 μl) into the plantar region of left paw of rats to induce the inflammatory hyperalgesia. Mechanical hyperalgesia (24 h after FCA injection) was assessed both pre- & post-dosing of drugs by measuring hind paw withdrawal thresholds. […] The post-dose paw withdrawal thresholds were measured at 0.5, 1, 2 & 4 h after oral administration. The % reversal of mechanical hyperalgesia was calculated.
Naïve withdrawal thresholds of the left hind paw to an increasing pressure (g) stimulus were measured in rats using the analgesymeter.

[5] = tested on: Spinal nerve ligation (SNL) injury-induced neuropathic hyperalgesia in male SD rats; assay: Spinal nerve ligation (SNL)-induced mechanical hyperalgesia; format: in vivo, rat (Sprague-Dawley); conditions: 0.5-4 h post-dose, Example 15, Table 18, FIG. 20
Method: Spinal nerve ligation (SNL) injury in rats induces neuropathic mechanical hyperalgesia in this Chung's model. Rats were anesthetized using ketamine/xylazine (40/5 mg/kg, i.p.) and a 2-3 cm longitudinal incision was made in the lumbar spinal region, 5-6 mm lateral to the midline and above the lower lumbar vertebrae and the rostral sacrum, exposing the paraspinal muscles on the left side. The paraspinal muscles were isolated using blunt-tipped scissors for exposing L6 transverse process. The L6 transverse process was cut with the help of blunt-tipped scissor to visualize the left L5 spinal nerves. The nerves were cleaned from adhering tissue and were tightly ligated using 7.0 silk sutures (EP 1.5, Pearsalls Ltd) (Somerset, UK). The wound was closed with muscle & skin sutures and Povidone-iodine solution was applied every day till complete healing. […] Mechanical hyperalgesia was assessed by measuring hind paw withdrawal to an increasing pressure (g) stimulus, using an analgesymeter (Ugo Basile, Italy) fitted with a wedge-shaped probe.
Mechanical hyperalgesia was assessed both pre- & post-dosing of drugs by measuring hind paw withdrawal thresholds. […] The post-dose paw withdrawal thresholds were measured at 0.5, 1, 2 & 4 h after oral administration. The % reversal of mechanical hyperalgesia was calculated as per standard procedure.

[6] = tested on: motor coordination in rotarod test in male SD rats; assay: Motor coordination in rotarod test; format: in vivo, rat (Sprague-Dawley)
Method: FIG. 9 is a bar graph that represents effect of Compound I (3 mg/kg), thiocolchicoside (0.01 mg/kg) and their combination on motor coordination in rotarod test in male SD rats.
FIG. 19 is a bar graph that represents effect of combination of thiocolchicoside (0.01 mg/kg) and Compound II (0.13 mg/kg) and their combination on motor coordination in rotarod test in male SD rats.

[7] = tested on: FCA-induced thermal hyperalgesia in male SD rats; assay: FCA-induced thermal hyperalgesia (Hargreaves apparatus); format: in vivo, rat (Sprague-Dawley); conditions: diclofenac sodium 6 mg/kg p.o. alone; 0.5-4 h post-dose; Example 16, Table 19, FIG. 22
Method: The % reversal of mechanical/thermal hyperalgesia was calculated.

[8] = tested on: MIA-osteoarthritis induced mechanical punctate allodynia in male SD rats; assay: MIA-induced mechanical punctate allodynia (dynamic von Frey); format: in vivo, rat (Sprague-Dawley); conditions: naproxen 3 mg/kg p.o. alone; 0.5-4 h post-dose; Example 19, Table 22, FIG. 25
Method: MIA was dissolved in 0.9% sterile saline and administered using a 26½ gauge needle. Contralateral knees were injected intra-articularly with 50 μl of 0.9% sterile saline. On the day of the experiment (20 h after MIA injection), rats were evaluated for pre-dose mechanical punctate allodynia to assess the effect of MIA. After regrouping the rats after randomization, the pre- & post-dose mechanical allodynia was assessed for both hind paws. […] The % reversal of punctate allodynia was calculated as per standard procedure. Animals were weighed and grouped as described in Table 22.

Cn1c(=O)c2c(CC(=O)Nc3nc(-c4ccc(F)c(C(F)(F)F)c4F)cs3)csc2n(C)c1=O [Compound I, N-{4-[2,4-difluoro-3-(trifluoromethyl)phenyl]-1,3-thiazol-2-yl}-2-(1,3-dimethyl-2,4-dioxo-1,2,3,4-tetrahydrothieno[2,3-d]pyrimidin-5-yl)acetamide]
maximal % reversal of weight bearing deficit ([1]; Compound I 1 mg/kg p.o. alone): 8%
maximal % reversal of hyperalgesia ([2]; Compound I 1 mg/kg p.o. alone, Example 7, Table 10, FIG. 11): 10%
maximal % reversal of hyperalgesia ([2]; Compound I 3 mg/kg p.o. alone, 0.5-4 h post-dose, Example 7, Table 9, FIG. 10): 26%
maximal % reversal of hyperalgesia ([3]; Compound I 3 mg/kg p.o. alone): 22%
maximal % reversal of hyperalgesia ([4]; Compound I 1 mg/kg p.o. alone, Example 1, Table 2, FIG. 2): 15%
maximal % reversal of hyperalgesia ([4]; Compound I 1 mg/kg p.o. alone, Example 2, Table 4, FIG. 4): 10%
maximal % reversal of hyperalgesia ([4]; Compound I 3 mg/kg p.o. alone, 0.5-4 h post-dose, Example 1, Table 1, FIG. 1): 21%
maximal % reversal of hyperalgesia ([4]; Compound I 3 mg/kg p.o. alone, Example 2, Table 3, FIG. 3): 25%
maximal % reversal of hyperalgesia ([4]; Compound I 3 mg/kg p.o. alone, Example 4, Table 6, FIG. 6): 21%
maximal % reversal of hyperalgesia ([4]; Compound I 3 mg/kg p.o. alone, Example 5, Table 7, FIG. 7): 25%
maximal % reversal of hyperalgesia ([4]; Compound I 3 mg/kg p.o. alone, Example 6, Table 8, FIG. 8): 17%

Cn1nc2c(c1CC(=O)N=c1scc(-c3ccc(F)c(C(F)(F)F)c3F)n1COP(=O)(O)O)c(=O)n(C)c(=O)n2C [Compound II, 4-(2,4-difluoro-3-(trifluoromethyl)phenyl)-2-((2-(2,5,7-trimethyl-4,6-dioxo-4,5,6,7-tetrahydro-2H-pyrazolo[3,4-d]pyrimidin-3-yl)acetyl)imino)thiazol-3 (2H)-yl)methyl dihydrogen phosphate]
maximal % reversal of hyperalgesia ([2]; Compound II 0.04 mg/kg p.o. alone, 1, 2 & 4 h post-dose, Example 13, Table 16, FIG. 17): 13%
maximal % reversal of hyperalgesia ([5]; Compound II 0.13 mg/kg p.o. alone): 18%
motor deficits (rotarod) ([6]; Compound II 0.13 mg/kg alone, n=8, Example 14, FIG. 19): did not produce any motor deficits
maximal % reversal of hyperalgesia ([4]; Compound II 0.13 mg/kg p.o. alone, Example 9, Table 12, FIG. 13): 21%
maximal % reversal of hyperalgesia ([4]; Compound II 0.13 mg/kg p.o. alone, Example 10, Table 13, FIG. 14): 22%
maximal % reversal of hyperalgesia ([4]; Compound II 0.13 mg/kg p.o. alone, Example 11, Table 14, FIG. 15): 14%
maximal % reversal of hyperalgesia ([4]; Compound II 0.13 mg/kg p.o. alone, Example 12, Table 15, FIG. 16): 22%
maximal % reversal of hyperalgesia ([4]; Compound II 0.13 mg/kg p.o. alone, Example 14, Table 17, FIG. 18): 14%

O=C(O)Cc1ccccc1Nc1c(Cl)cccc1Cl [diclofenac sodium]
maximal % reversal of thermal hyperalgesia [7]: 27%
maximal % reversal of hyperalgesia ([4]; diclofenac sodium 6 mg/kg p.o. alone, 0.5-4 h post-dose, Example 1, Table 1, FIG. 1): 15%
maximal % reversal of hyperalgesia ([4]; diclofenac sodium 6 mg/kg p.o. alone, Example 9, Table 12, FIG. 13): 14%
maximal % reversal of mechanical hyperalgesia ([4]; diclofenac sodium 6 mg/kg p.o. alone, Example 16, Table 19, FIG. 21): 23%
maximal % reversal of hyperalgesia ([4]; diclofenac sodium 8 mg/kg p.o. alone, Example 1, Table 2, FIG. 2): 39%

CNCC[C@H](Oc1cccc2ccccc12)c1cccs1 [duloxetine hydrochloride]
maximal % reversal of hyperalgesia ([2]; duloxetine hydrochloride 3 mg/kg p.o. alone, 0.5-4 h post-dose, Example 7, Table 9, FIG. 10): 23%
maximal % reversal of hyperalgesia ([2]; duloxetine hydrochloride 3 mg/kg p.o. alone, 0.5-4 h post-dose, Example 18, Table 21, FIG. 24): 20%
maximal % reversal of hyperalgesia ([2]; duloxetine hydrochloride 3 mg/kg p.o. alone, 1, 2 & 4 h post-dose, Example 13, Table 16, FIG. 17): 17%
maximal % reversal of hyperalgesia ([2]; duloxetine hydrochloride 10 mg/kg p.o. alone, Example 7, Table 10, FIG. 11): 35%

Cc1cnc(NC(=O)C2=C(O)c3ccccc3S(=O)(=O)N2C)s1 [meloxicam]
maximal % reversal of hyperalgesia ([4]; meloxicam 0.5 mg/kg p.o. alone, Example 4, Table 6, FIG. 6): 21%
maximal % reversal of hyperalgesia ([4]; meloxicam 0.5 mg/kg p.o. alone, Example 11, Table 14, FIG. 15): 19%

COc1ccc2cc([C@H](C)C(=O)O)ccc2c1 [naproxen]
maximal % reversal of weight bearing deficit ([1]; naproxen 10 mg/kg p.o. alone): 39%
maximal % reversal of mechanical punctate allodynia [8]: 18%
maximal % reversal of hyperalgesia ([4]; naproxen 3 mg/kg p.o. alone, Example 2, Table 3, FIG. 3): 23%
maximal % reversal of hyperalgesia ([4]; naproxen 3 mg/kg p.o. alone, Example 10, Table 13, FIG. 14): 18%
maximal % reversal of mechanical hyperalgesia ([4]; naproxen 3 mg/kg p.o. alone, Example 17, Table 20, FIG. 23): 17%
maximal % reversal of hyperalgesia ([4]; naproxen 5 mg/kg p.o. alone, Example 2, Table 4, FIG. 4): 32%

CC(=O)Nc1ccc(O)cc1 [paracetamol]
maximal % reversal of hyperalgesia ([4]; paracetamol 60 mg/kg p.o. alone, Example 5, Table 7, FIG. 7): 28%
maximal % reversal of hyperalgesia ([4]; paracetamol 60 mg/kg p.o. alone, Example 12, Table 15, FIG. 16): 17%

CC(C)C[C@H](CN)CC(=O)O [pregabalin]
maximal % reversal of hyperalgesia ([3]; pregabalin 1 mg/kg p.o. alone): 14%
maximal % reversal of hyperalgesia ([5]; pregabalin 1 mg/kg p.o. alone): 20%

COc1c(O[C@@H]2O[C@H](CO)[C@@H](O)[C@H](O)[C@H]2O)cc2c(c1OC)-c1ccc(SC)c(=O)cc1[C@@H](NC(C)=O)CC2 [thiocolchicoside]
motor deficits (rotarod) ([6]; thiocolchicoside 0.01 mg/kg alone, Example 6, FIG. 9): did not produce any motor deficits
motor deficits (rotarod) ([6]; thiocolchicoside 0.01 mg/kg alone, n=8, Example 14, FIG. 19): did not produce any motor deficits
maximal % reversal of hyperalgesia ([4]; thiocolchicoside 0.01 mg/kg p.o. alone, Example 6, Table 8, FIG. 8): 15%
maximal % reversal of hyperalgesia ([4]; thiocolchicoside 0.01 mg/kg p.o. alone, Example 14, Table 17, FIG. 18): 14%
